The record followed here is US20250281629A1, “COMPOSITIONS AND METHODS FOR ANTI-PHOSPHOCHOLINE ACTIVE IMMUNOTHERAPY” (Duke University, priority 2022, published 2025).

The nature of data set [1]: Zeta potential of nanofibers. The format is physicochemical. The note with it: 1 mM conjugate coassembled with 1 mM Q11; 0.2 mM in 1×PBS, 25° C. The method, then:
Zeta Potential. Nanofibers were diluted to 0.2 mM in 1×PBS and zeta potential measurements were conducted at 25° C. using an Anton Paar Litesizer 500.

Data set [2] deals with mouse anti-PC IgM monoclonal antibody (Clone: BH8). The data set is described as follows: ELISA for measuring nanofiber epitope reactivity. The format is binding. Conditions: nanofibers coated at 0.2 mM; PC-BSA positive control. The method, then:
ELISA for Measuring Nanofiber Epitope Reactivity. The reactivity of PC conjugation methods was determined via binding of a mouse anti-PC IgM monoclonal antibody (Clone: BH8) (Sigma, MABF2084) to nanofibers. Nanofibers were diluted to 0.2 mM and coated onto 96-well plates at 4° C. overnight. PC-BSA (Biosearch Technologies, PC-1011-10) was coated at 20 μg/mL in 1×PBS overnight as a positive control, and PBS was used as a negative control. The next day, the plates were washed using 1×PBS with 0.05% Tween 20 (1×PBST) and then blocked with Superblock blocking buffer solution (Thermo Fisher, 37515) three times. This was followed by the addition anti-PC IgM which was serially diluted in 1% BSA in 1×PBST by 5-fold steps beginning from 1:100 (5 μg/mL) and allowed to incubate for 2 h at room temperature. Anti-PC IgM bound to nanofibers was then detected with HRP-conjugated goat anti-mouse IgM (Southern Biotech, 1021-05) and the absorbance values at 450 nm were measured.

Another data set has as its system C57BL/6 mice. In words: Serum anti-PC antibody responses of immunized mice via ELISA (PC-BSA coated). The format is in vivo, mouse. The note with it: 10% Cys4-Q11 added to PC-Q11 or PCM-Q11 nanofibers; i.p. As to the method: Mice and Immunizations. Female C57BL/6 mice (Envigo) age 6-10 weeks were used to initiate experiments except for the Il10^−/− colitis study where female B6.129P2-Il10^tm1Cgn/J (The Jackson Laboratory) mice age 5-7 weeks were used. While female mice were used for most experiments, age-matched male C57BL/6 mice (Envigo) were used in a one cycle acute DSS colitis model to confirm efficacy across sexes. Mice were housed at Duke University. All experimental procedures were performed on protocols (A264-18-11 and A199-21-09) approved by the Duke University Institutional Animal Care and Use Committee (IACUC). For subcutaneous immunizations, anesthetized mice were injected once behind each shoulder with 50 μL of 2 mM peptide nanofiber solution or 1×PBS. For intraperitoneal immunizations, mice were injected with 100 μL of 2 mM peptide nanofiber solution or 1×PBS. Nanofiber immunizations with adjuvant contained 10 μg CpG (ODN 1826, IAX-200-002-3001, Innaxon). For injections of only CpG, 10 μg of CpG in 100 μL 1×PBS was used. Mice were typically given three immunizations, with the specific boosting schedules stated in each figure caption, usually at weeks 0, 2, and 4, as this was determined to produce robust antibody responses in a short time frame.
Detection of Anti-PC Antibody Responses via ELISA. Anti-PC antibody responses in serum collected from the submandibular vein in mice were measured using ELISA. Briefly, plates were coated with 20 μg/mL PC-BSA (Biosearch Technologies, PC-1011-10) in 1×PBS or just 1×PBS at 4° C. overnight. The next day, the plates were washed using 1×PBST (1×PBS with 0.05% Tween 20) and then blocked three times with Superblock blocking buffer solution (Thermo Fisher, 37515). Serum diluted from 1:10^2 to 1:10^5 in 1% BSA in 1×PBST was the added to the plate and allowed to incubate for 2 h at room temperature. Anti-PC IgG was detected using HRP-conjugated Fcγ fragment-specific goat anti-mouse IgG (Jackson Immuno Research, 15-035-071). IgG subclasses and IgM anti-PC antibodies were detected using Southern Biotech HRP-conjugated goat anti-mouse antibodies (IgG1, IgG2b, IgG2c, IgG3, & IgM: 5300-05B). Area under the curve (AUC) measurements were calculated using background-subtracted absorbance values at dilutions from 1:10^2 to 1:10^5. Antibody titers were defined using an absorbance cutoff above background of 0.2 OD, where titer 2 represents an OD value greater than 0.2 at 1:10^2 dilution and so on up to titer 5 at 1:10^5 dilution.
Background: ELISA stands for enzyme-linked immunosorbent assay.

In the next data set the test system is macrophages (F4/80+). In words: Nanofiber uptake in i.p. lavage cells, flow cytometry: macrophages. The format is in vivo, mouse. Conditions: 4 hours after i.p. injection of TAMRA-labeled nanofibers. As to the method: (§1) Nanofiber Uptake and Evaluation. The cell types present and their propensity to uptake nanofibers in the i.p. space was tested by injecting mice i.p. with 100 μL of 2 mM TAMRA-labeled fluorescent nanofibers. 4 hours later, mice were euthanized and i.p. lavage was conducted via the injection of 2 mL of cold 1×PBS into the peritoneal cavity and massaging the abdomen for 30 seconds. The solution was then carefully extracted from the i.p. space and the cells were isolated followed by rinsing with ice cold flow buffer (2% heat-inactivated FBS in 1×PBS). The cells present were treated with mouse BD Fc Block (Clone: 2.4G2) (BD Biosciences, 553142) in flow buffer on ice for 30 min and then washed and stained with antibodies against the following markers: CD5-APC (Clone: 53-7.3) (BioLegend, 100626), F4/80-PerCP/Cy5.5 (Clone: BM8) (BioLegend, 123128), CD19-APC/Cy7 (Clone: 6D5) (BioLegend, 115530), CD11c-PE/Cy7 (Clone: N418) (BioLegend, 117318), and CD86-BV605 (Clone: GL1) (BD Biosciences, 2272591) in flow buffer for 30 min on ice. TAMRA-fluorescence as an indication of nanofiber uptake was measured on the PE channel. Cells were then washed in flow buffer and stained with DAPI. Flow cytometry was conducted on a BD FACSCanto II cytometer and the results were analyzed using FlowJo software.
A general note: Flow cytometry measures light scatter and fluorescence of single cells or particles in a stream.

Another data set deals with B1a cells (CD19+CD5+). In words: Nanofiber uptake in i.p. lavage cells, flow cytometry: B1a cells. The format is in vivo, mouse. Conditions: 4 hours after i.p. injection. As to the method: as §1

Where no end group is shown, it is not given here.

With “C5H14NO4P-SGSG-QQKFQFQFEQQ-NH2 (C5H14NO4P-SGSGQQKFQFQFEQQ-NH2) [pa-PC-Q11, phosphoramidate-linked PC-Q11]”, in data set [1], the “zeta potential (surface charge) of nanofibers” value is given as “positively charged”. In addition, the “binding of anti-PC mAb to nanofibers” value in data set [2] is listed as “not”.

Turning to “CCCCSGSG-QQKFQFQFEQQ-NH2 (CCCCSGSGQQKFQFQFEQQ-NH2; cysteine pairing not given here) [Cys4-Q11]”, in the data set with C57BL/6 mice, the “effect of extra cysteines on anti-PC antibody responses” value was “did not significantly enhance or reduce the anti-PC antibody responses”.

For the substance “AC-QQKFQFQFEQQ-NH2 (Ac-QQKFQFQFEQQ-NH2) [Q11]”, the “binding of anti-PC mAb to nanofibers” value in data set [2] was “not”. Besides, the “macrophages staining positively for nanofibers” value in the data set on macrophages (F4/80+) was “almost all macrophages staining positively for nanofibers”. Further, the “CD86 activation marker on TAMRA+ B1a cells vs non-B1a cells” value in the data set with B1a cells (CD19+CD5+) is “not seen”.
